The text below walks through data of US20180213795A1, “PLANT DISEASE CONTROL COMPOSITION AND PLANT DISEASE CONTROL METHOD” (SUMITOMO CHEMICAL COMPANY, LIMITED, priority 2015, published 2018).

Type in all cases: in vivo
The test system of assay [1] is damping-off fungus (Rhizoctonia solani). The assay can be described thus: Test Example 23: soybean seed treatment, damping-off control in pots. The settings on record: soybean seeds, 20 days after.
The test system of assay [2] is damping-off fungus (Pythium spp.). Briefly: Test Example 21: corn seed treatment, damping-off control in pots. The settings on record: corn seeds, 20 days after. The procedure: In a rotary seed treatment machine (trade name: HEGE11, manufactured by WINTERSTEIGER), corn seeds (variety: yellow dent corn) were treated by smearing treatment using a flowable formulation of the present bacterial strain as obtained in Formulation Example 13 and ethaboxam flowable formulation (34.6% flowable formulation, Valent U.S.A. Corporation), so that the […] retain the present bacterial strain and/or the compound in the amount shown in Table 6.
Cultivation was carried out in a greenhouse under irrigation. Also, similar procedures were conducted using untreated corn seeds, instead of the treated corn seeds, as described above for the treated compartment (“untreated compartment”). The plants were investigated 20 days after for the number of diseased plants, and the disease incidence was calculated by the following “Equation 1”. The control value of the treated compartment was calculated by the following equation “Equation 2”, based on the disease incidences of the treated compartment and the untreated compartment.
Disease incidence (%)=100×(number of diseased plant/total number of seeded seeds): Equation 1
Control value (%)=100×[(disease incidence in […] in treated compartment)/disease incidence in untreated compartment]: Equation 2
If the effect by the combination of two active ingredients is greater than that of the estimated value E, which is calculated by the Colby's equation as follows, the effect is regarded as synergistic.
wherein, E=Control value when using the mixture of the active ingredients A and B at the concentrations m and n (amount of the active ingredient), respectively. X=Control value when using the active ingredient A at the concentration m (amount of the active ingredient). Y=Control value when using the active ingredient B at the concentration n (amount of the active ingredient).

The test system is the same in assay [3]. Briefly: Test Example 22: soybean seed treatment, damping-off control in pots. The settings on record: soybean seeds, 20 days after. The method, then:
If the effect by the combination of two active ingredients is greater than that of the estimated value E, which is calculated by the Colby's equation as follows, the effect is regarded as synergistic. E=X+Y-X·Y/100 wherein, E=Control value when using the mixture of the active ingredients A and B at the concentrations m and n (amount of the active ingredient), respectively. X=Control value when using the active ingredient A at the concentration m (amount of the active ingredient). Y=Control value when using the active ingredient B at the concentration n (amount of the active ingredient). […] Corporation) and metalaxyl flowable formulation (30.14% flowable formulation, trade name: […] Cultivation was carried out in a greenhouse under irrigation. Also, similar procedures were conducted using untreated soybean seeds, instead of the treated soybean seeds, as described above for the treated compartment (“untreated compartment”). […] Disease incidence (%)=100×(number of diseased plant/total number of seeded seeds): […]

With `CC1CC(C)(C)c2cccc(NC(=O)c3cn(C)nc3C(F)F)c21` (racemic) [The Carboxamide Compound (1)], the “Control Value” in assay [1] (carboxamide compound (1) 0.0004 g/kg seeds) is on record as 40.0%; in assay [1] (carboxamide compound (1) 0.002 g/kg seeds), 54.3%; in assay [1] (carboxamide compound (1) 0.01 g/kg seeds), 65.7%.
In the case of `CCNc1nc(CC)c(C(=O)NC(C#N)c2cccs2)s1` (stereo not drawn) [Ethaboxam, ethaboxam], the “Control Value” in assay [2] (ethaboxam 0.00625 g/kg seeds) is given as 19.4%; in assay [2] (ethaboxam 0.025 g/kg seeds), 32.3%; in assay [2] (ethaboxam 0.1 g/kg seeds), 48.4%; in assay [3] (ethaboxam 0.075 g/kg seeds), 46.9%; in assay [3] (ethaboxam 0.15 g/kg seeds) it was 56.2%; in assay [3] (ethaboxam 0.3 g/kg seeds), 62.5%.
Consider `N#Cc1c[nH]cc1-c1cccc2c1OC(F)(F)O2` [Fludioxonil, fludioxonil], for which the entries for the “Control Value” in assay [1] (fludioxonil 0.004 g/kg seeds), in assay [1] (fludioxonil 0.02 g/kg seeds) and in assay [1] (fludioxonil 0.1 g/kg seeds) were 25.7%, 37.1% and 48.6%, respectively.
On to `COCC(=O)N(c1c(C)cccc1C)C(C)C(=O)OC` (stereo not drawn) [Metalaxyl, metalaxyl], for which the “Control Value” is on record as 40.6% in assay [3] (metalaxyl 0.01 g/kg seeds), 50.0% in assay [3] (metalaxyl 0.04 g/kg seeds) and 59.4% in assay [3] (metalaxyl 0.16 g/kg seeds).
As to `COP(=S)(OC)Oc1c(Cl)cc(C)cc1Cl` [Tolclofos-Methyl, tolclofos-methyl], the “Control Value” in assay [1] (tolclofos-methyl 0.01 g/kg seeds) stood at 11.4%; in assay [1] (tolclofos-methyl 0.05 g/kg seeds) it was 28.6%; in assay [1] (tolclofos-methyl 0.25 g/kg seeds) it was 42.8%.
